In ChEMBL document CHEMBL4020734, “Identification of a novel fluoropyrrole derivative as a potassium-competitive acid blocker with long duration of action” (Bioorg Med Chem, 2017):
Activity calls are given as the source filed them. No cut-off for these calls is given here.

Assays:
[1] = Cytotoxicity against human HepG2 cells assessed as cellular ATP level at 100 uM after 1 day by ATPLite assay relative to control; type: cell-based; conditions: read-out: Activity
[2] = Lipophilicity, log D of the compound at pH 7.4 by HPLC analysis; type: physicochemical; conditions: buffer
[3] = molecular target: hERG (KCNH2) (Homo sapiens, UniProt Q12809); experiment: Inhibition of human ERG expressed in HEK cells at 10 uM at -75 mV holding potential by Whole-cell voltage clamp assay relative to control; type: cell-based; conditions: HEK cells expressing human ERG
hERG (KCNH2), sequence (Q12809 whole entry): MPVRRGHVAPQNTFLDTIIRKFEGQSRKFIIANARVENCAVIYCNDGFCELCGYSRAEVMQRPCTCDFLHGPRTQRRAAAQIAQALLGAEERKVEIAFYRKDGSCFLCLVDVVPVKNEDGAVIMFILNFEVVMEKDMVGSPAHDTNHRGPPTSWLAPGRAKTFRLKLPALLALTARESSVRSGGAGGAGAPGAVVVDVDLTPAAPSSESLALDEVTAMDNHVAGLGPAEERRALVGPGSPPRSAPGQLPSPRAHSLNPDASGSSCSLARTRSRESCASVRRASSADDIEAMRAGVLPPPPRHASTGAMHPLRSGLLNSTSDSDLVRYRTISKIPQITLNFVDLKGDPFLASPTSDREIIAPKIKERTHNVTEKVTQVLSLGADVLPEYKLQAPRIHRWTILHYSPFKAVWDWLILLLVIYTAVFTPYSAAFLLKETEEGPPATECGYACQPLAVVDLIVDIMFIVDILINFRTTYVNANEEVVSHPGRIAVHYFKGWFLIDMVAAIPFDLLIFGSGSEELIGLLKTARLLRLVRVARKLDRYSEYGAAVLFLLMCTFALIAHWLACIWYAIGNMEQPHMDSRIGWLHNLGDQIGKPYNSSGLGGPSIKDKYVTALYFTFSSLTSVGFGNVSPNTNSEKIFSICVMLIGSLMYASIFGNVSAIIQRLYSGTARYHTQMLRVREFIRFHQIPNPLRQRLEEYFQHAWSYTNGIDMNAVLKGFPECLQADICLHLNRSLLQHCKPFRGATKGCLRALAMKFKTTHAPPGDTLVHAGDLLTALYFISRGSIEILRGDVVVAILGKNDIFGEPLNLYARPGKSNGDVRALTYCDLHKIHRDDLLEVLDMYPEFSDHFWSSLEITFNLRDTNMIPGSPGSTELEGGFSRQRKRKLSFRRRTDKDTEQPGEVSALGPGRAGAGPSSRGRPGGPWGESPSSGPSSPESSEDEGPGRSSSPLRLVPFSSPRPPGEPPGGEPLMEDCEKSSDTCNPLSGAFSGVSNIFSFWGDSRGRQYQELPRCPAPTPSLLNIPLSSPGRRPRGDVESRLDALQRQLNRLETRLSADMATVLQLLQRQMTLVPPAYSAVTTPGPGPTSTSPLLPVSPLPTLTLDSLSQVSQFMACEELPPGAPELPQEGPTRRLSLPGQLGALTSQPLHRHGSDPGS

[4] = system: Rattus norvegicus; experiment: Inhibition of histamine-induced acid secretion in Jcl:SD rat gastric assessed as pH of gastric perfusate at 1 mg/kg, iv pretreated for 3 mins followed by histamine.2HCl treatment measured after 150 to 180 mins by glass electrode method (reference value: 2); type: functional
[5] = system: Rattus norvegicus; experiment: Inhibition of histamine-induced acid secretion in Jcl:SD rat gastric at 1 mg/kg, iv pretreated for 3 mins followed by histamine.2HCl treatment measured after 3 hrs by titration method; type: functional
[6] = Inhibition of H+/K+-ATPase in porcine stomach gastric mucosal microsomes assessed as reduction in inorganic phosphate production using ATP as substrate preincubated for 30 mins followed by ATP addition in presence of KCl by malachite green reagent based colorimetric assay; parameters: species or system Sus scrofa
[7] = Inhibition of CYP450 (unknown origin); type: ADME; conditions: human
[8] = Metabolic stability of the compound
[9] = Solubility of the compound; type: physicochemical
[10] = Dissociation constant, pKa of the compound; type: physicochemical
[11] = Cytotoxicity against human HepG2 cells assessed as cellular ATP level at 30 uM after 1 day by ATPLite assay relative to control; type: cell-based; conditions: read-out: Activity
[12] = Effective permeability of the compound at 10 uM at pH 5 after 3 hrs by PAMPA; type: physicochemical; conditions: read-out: Peff
[13] = Effective permeability of the compound at 10 uM at pH 7.4 after 3 hrs by PAMPA; type: physicochemical; conditions: read-out: Peff
[14] = system: Canis familiaris; experiment: Inhibition of histamine-induced acid secretion in dog heidenhain pouch at 1 mg/kg, po treated 1 day after and 1 to 48 hrs before histamine.2HCl treatment measured 30 mins post histamine challenge by titration method; type: functional, organism-based; conditions: Canis lupus familiaris

| logD [2] | IC50 [6] [µM] | Compound | viability at 24 h, 100 µM [1] [%] | inhibition at 10 µM [3] [%] | inhibition in vivo at 1 mg/kg [5] [%] | other results |
| --- | --- | --- | --- | --- | --- | --- |
| -0.85 | 0.21 | CNCc1cc(-c2cccnc2F)n(S(=O)(=O)c2cccnc2)c1 | 85.7 | 4.4 | 96 | pH [4]: 5 |
| -1.29 | 0.53 | CNCc1cc(-c2cccnc2C#N)n(S(=O)(=O)c2cccnc2)c1 | 85.3 | 1.9 | 48 |  |
| 0.39 |  | CNCc1cc(-c2ccccc2F)n(S(=O)(=O)c2cccnc2)c1 [VONOPRAZAN] |  |  |  | pKa [10]: 9.3 |
| 0.73 |  | CNCc1cc(-c2ccccc2)n(S(=O)(=O)c2cccnc2)c1 |  |  |  |  |
| 0.48 | 0.099 | CNCc1cn(S(=O)(=O)c2cccnc2)c(-c2cccnc2F)c1Cl | 64.5 | 41.3 | 95 |  |
| 0.06 | 0.25 | CNCc1cc(-c2cccnc2C)n(S(=O)(=O)c2cccnc2)c1 | 107 |  | -41 |  |
| -0.5 | 0.12 | CNCc1cc(-c2cccnc2Cl)n(S(=O)(=O)c2cccnc2)c1 | 82.9 | 10.6 | 92 |  |

More lines, now with the values behind:

| Compound | logD [2] | IC50 [6] [µM] | viability at 24 h, 100 µM [1] [%] | inhibition at 10 µM [3] [%] | inhibition in vivo at 1 mg/kg [5] [%] | other results |
| --- | --- | --- | --- | --- | --- | --- |
| CNCc1cc(-c2cccnc2)n(S(=O)(=O)c2ccccc2)c1 | 0.08 | 0.13 | 95 | 43.3 | 4 | inhibition (INH) [7]: Not Active; Stability [8]: Stable; solubility [9]: Soluble |
| CNCc1cc(-c2cccnc2F)n(S(=O)(=O)c2ccccn2)c1 | 0.05 | 0.12 | 78.6 |  | 81 |  |
| CNCc1cc(-c2cccnc2F)n(S(=O)(=O)c2cccs2)c1 | -0.69 | 0.032 | 74.9 | 63 | 96 |  |
| CNCc1cc(-c2ccccc2C)n(S(=O)(=O)c2ccc(C)cc2)c1 | 2.12 | 0.062 |  |  | 92 | viability at 24 h, 30 µM [11]: 0.3% |
| CNCc1cc(-c2cncnc2)n(S(=O)(=O)c2ccccc2)c1 | -0.4 | 0.41 | 97.5 | 24.2 |  |  |
| CNCc1cc(-c2cccnc2F)n(S(=O)(=O)c2ccco2)c1 | -1.15 | 0.059 | 68.7 | 49.1 | 74 |  |
| CNCc1cc(-c2cccnc2F)n(S(=O)(=O)c2cccc(C#N)c2)c1 | -0.36 | 0.089 | 46.7 | 46.7 | 99 |  |
| CNCc1cc(-c2ccc(F)cc2)n(S(=O)(=O)c2ccc(C)cc2)c1 | 2.05 | 0.09 |  |  | 86 | viability at 24 h, 30 µM [11]: 0.4%; pKa [10]: 9.4 |
| CNCc1cc(-c2ccccc2)n(S(=O)(=O)c2ccc(OC)cc2)c1 | 1.54 | 0.03 |  | 89.1 | 95 | Papp at 3 h, 10 µM [12]: 198 nm/s; viability at 24 h, 30 µM [11]: 22.1%; Papp at 3 h, 10 µM [13]: 246 nm/s; inhibition [14]: Active; pKa [10]: 9.48 |
| CNCc1cc(-c2ccccc2)n(S(=O)(=O)c2ccccc2)c1 | 1.44 | 0.0094 |  | 87.5 | 96 | viability at 24 h, 30 µM [11]: 53.8% |
| CNCc1cc(-c2cccnc2F)n(S(=O)(=O)c2ccoc2)c1 | -1.31 | 0.092 | 77.4 | 59.3 | 82 |  |
